EC50 data for 31 molecules are collected here from patent US11040033B2 (Gilead Sciences, Inc., priority 2017, dated 2021).

The target in the test is T1, IDO1 (Homo sapiens, UniProt P14902).
T1 construct: HeLa cells were treated with a test compound in the presence of IFNγ, which induces IDO1 expression; endogenous in cells; host or cells: H1-HeLa cells (ATCC #CRL-1958), induced with IFNγ
T1 sequence (P14902 whole entry): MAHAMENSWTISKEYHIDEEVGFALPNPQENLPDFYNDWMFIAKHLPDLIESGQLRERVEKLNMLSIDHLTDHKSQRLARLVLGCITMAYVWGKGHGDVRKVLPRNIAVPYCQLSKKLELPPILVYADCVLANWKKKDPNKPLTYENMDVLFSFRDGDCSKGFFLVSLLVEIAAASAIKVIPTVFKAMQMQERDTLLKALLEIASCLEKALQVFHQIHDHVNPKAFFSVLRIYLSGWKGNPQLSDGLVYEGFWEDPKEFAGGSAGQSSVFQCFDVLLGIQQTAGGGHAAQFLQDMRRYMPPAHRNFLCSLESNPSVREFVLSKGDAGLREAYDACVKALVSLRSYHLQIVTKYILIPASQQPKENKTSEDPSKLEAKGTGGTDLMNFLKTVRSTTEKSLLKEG
Put plainly: Cell-based (HeLa) assay for measurement of IDO1 inhibition (kynurenine levels in supernatant after IFNγ induction). The following applies: H1-HeLa cells, IFNγ-induced IDO1, 48 hour incubation, kynurenine absorbance at 480 nm; geometric mean of a minimum of four determinations. As for the experimental part:
To measure IDO1 inhibition in tissue culture, HeLa cells were treated with a test compound in the presence of IFNγ, which induces IDO1 expression. Following incubation, cell supernatants were assayed for kynurenine levels, an indicator of IDO1 activity.
H1-HeLa cells (ATCC #CRL-1958) were seeded in 384-well plates (Greiner #82051-282) at a volume […] (Corning #15-018-CM) supplemented with 10% FBS (Corning #35-011-CV) and 1% P/S/G (Corning #30-009-CL) at a density of 1,250 cells/well and incubated overnight at 37° C., 5% CO2/100% humidity. The following day, the test compounds were added in DMSO (0.5% final) at various concentrations, and IDO1 was inducibly expressed by the addition of 50 uL/well of 50 ng/mL of INFγ(Peprotech #300-02) in cell plating media. As a positive control, 50 uL of the cell plating media without IFNγ was added to several wells. Following a 48 hour incubation, the plates were spun down at 1,200 RPM for 5 min at 10° C. 65 μL/well of the supernatant was then transferred to new 384-well plates (Thermo #262160) that contained 10 uL/well of 30% TCA (Sigma #T0699), and the plates were sealed and incubated at 60° C. for 30 min. The plates were then centrifuged for 15 min at 2,000 RPM at 10° C. 40 μL/well of the supernatant was transferred to new 384-well plates (Thermo #262160) and was reacted with 40 μL/well of 2% (w/v) p-dimethylaminobenzaldehyde (Sigma #156417) in glacial acetic acid (Sigma #A6283). The reaction was incubated at room temperature for 10 min and absorbance at 480 nm was read using a PerkinElmer Envision plate reader.
Data in Table 1 were normalized based on positive (−IFNγ) and negative (+IFNγ) controls and EC50 values were calculated from the fit of the dose-response curves to a four-parameter equation. All EC50 values represent geometric mean values of a minimum of four determinations. These assays generally produced results within 2-fold of the reported mean.
The molecule `O=C(Nc1ccc(F)cc1)c1cc(-c2cccn3c(-c4cccnc4)ncc23)ccc1C(F)(F)F` [Example 31, N-(4-fluorophenyl)-5-(3-(pyridin-3-yl)imidazo[1,5-a]pyridin-8-yl)-2-(trifluoromethyl)benzamide] came in with an EC50 of 38.3 nM.
Consider `O=C(Nc1ccc(F)cc1)c1cc(-c2cccn3c(-c4cc[nH]n4)ncc23)ccc1C(F)(F)F` [Example 32, 5-(3-(1H-pyrazol-3-yl)imidazo[1,5-a]pyridin-8-yl)-N-(4-fluorophenyl)-2-(trifluoromethyl)benzamide], for which the 50% effective concentration (EC50) turned out to be 34.9 nM.
The molecule `O=C(Nc1ccc(F)cc1)c1cc(-c2cccn3c(-c4ccccn4)ncc23)ccc1C(F)(F)F` [Example 33, N-(4-fluorophenyl)-5-(3-(pyridin-2-yl)imidazo[1,5-a]pyridin-8-yl)-2-(trifluoromethyl)benzamide] came in with an EC50 of 31.1 nM.
As to `Cc1ccc(-c2cccn3c(-c4cccc(F)c4F)ncc23)cc1C(=O)Nc1ccc(F)cc1` [Example 34, 5-(3-(2,3-difluorophenyl)imidazo[1,5-a]pyridin-8-yl)-N-(4-fluorophenyl)-2-methylbenzamide], the concentration for a half-maximal effect (EC50) turned out to be 29.4 nM.
Take `Cc1ncc(-c2cccn3c(-c4cccc(F)c4)ncc23)cc1C(=O)Nc1ccc(F)cc1` [Example 35, N-(4-fluorophenyl)-5-(3-(3-fluorophenyl)imidazo[1,5-a]pyridin-8-yl)-2-methylnicotinamide]: the EC50 stood at 26.8 nM.
The same measure for `O=C(Nc1ccc(F)cc1)c1cc(-c2cccn3c(-c4cnccn4)ncc23)ccc1C(F)(F)F` [Example 36]: 25.2 nM; for `Cc1ccc(-c2cccn3c(-c4ncccn4)ncc23)cc1C(=O)Nc1ccc(F)cc1` [Example 37, N-(4-fluorophenyl)-2-methyl-5-(3-(pyrimidin-2-yl)imidazo[1,5-a]pyridin-8-yl)benzamide]: 24.2 nM.
The same measure for `O=C(Nc1ccc(F)cc1)c1nc(-c2cccn3c(-c4cccc(F)c4F)ncc23)ccc1C(F)(F)F` [Example 38, 6-(3-(2,3-difluorophenyl)imidazo[1,5-a]pyridin-8-yl)-N-(4-fluorophenyl)-3-(trifluoromethyl)picolinamide]: 23.8 nM; for `O=C(Nc1ccc(F)cc1)c1cc(-c2cccn3c(-c4cccc(F)c4)ncc23)ccc1C(F)(F)F` [Example 39, N-(4-fluorophenyl)-5-(3-(3-fluorophenyl)imidazo[1,5-a]pyridin-8-yl)-2-(trifluoromethyl)benzamide]: 23.3 nM.
The same measure for `Cc1ccc(-c2cccn3c(-c4ncco4)ncc23)cc1C(=O)Nc1ccc(F)cc1` [Example 40, N-(4-fluorophenyl)-2-methyl-5-(3-(oxazol-2-yl)imidazo[1,5-a]pyridin-8-yl)benzamide]: 23.1 nM; for `O=C(Nc1ccc(F)cc1)c1cc(-c2cccn3c(-c4cccc(F)c4F)ncc23)ccc1C(F)F` [Example 41, 2-(difluoromethyl)-5-(3-(2,3-difluorophenyl)imidazo[1,5-a]pyridin-8-yl)-N-(4-fluorophenyl)benzamide]: 19.8 nM.
`Cc1ccc(-c2cccn3c(-c4cccc(F)c4F)ncc23)c(F)c1C(=O)Nc1ccc(F)cc1` [Example 42, 3-(3-(2,3-difluorophenyl)imidazo[1,5-a]pyridin-8-yl)-2-fluoro-N-(4-fluorophenyl)-6-methylbenzamide] returned a concentration for a half-maximal effect (EC50) of 17.7 nM.
The same measure for `Cc1ncc(-c2cccn3c(-c4cccc(F)c4F)ncc23)cc1C(=O)Nc1ccc(F)cc1` [Example 43, 5-(3-(2,3-difluorophenyl)imidazo[1,5-a]pyridin-8-yl)-N-(4-fluorophenyl)-2-methylnicotinamide]: 17.2 nM.
In the case of `Cc1nc(-c2cccc(F)c2F)n2cccc(-c3ccc(C(F)(F)F)c(C(=O)Nc4ccc(F)cc4)c3)c12` [Example 44, 5-(3-(2,3-difluorophenyl)-1-methylimidazo[1,5-a]pyridin-8-yl)-N-(4-fluorophenyl)-2-(trifluoromethyl)benzamide], it took 16.9 nM to reach a half-maximal effect (EC50).
The same measure for `O=C(Nc1ccc(F)cc1)c1cc(-c2cccn3c(-c4ncccn4)ncc23)ccc1C(F)(F)F` [Example 45]: 16.4 nM; for `O=C(Nc1ccc(F)cc1)c1cc(-c2cccn3c(-c4ncco4)ncc23)ccc1C(F)(F)F` [Example 46, N-(4-fluorophenyl)-5-(3-(oxazol-2-yl)imidazo[1,5-a]pyridin-8-yl)-2-(trifluoromethyl)benzamide]: 16.1 nM; for `O=C(Nc1ccc(F)cc1)c1cc(-c2cccn3c(-c4cccc(F)c4F)ncc23)cnc1C(F)(F)F` [Example 47, 5-(3-(2,3-difluorophenyl)imidazo[1,5-a]pyridin-8-yl)-N-(4-fluorophenyl)-2-(trifluoromethyl)nicotinamide]: 16 nM.
The same measure for `O=C(Nc1ccc(F)cc1)c1cc(-c2cccn3c(-c4cccc(F)c4F)ncc23)ccc1C(F)(F)F` [Example 48, 5-(3-(2,3-difluorophenyl)imidazo[1,5-a]pyridin-8-yl)-N-(4-fluorophenyl)-2-(trifluoromethyl)benzamide]: 15.9 nM; for `Cc1ncc(-c2cccn3c(-c4ccccc4F)ncc23)cc1C(=O)Nc1ccc(F)cc1` [Example 49, N-(4-fluorophenyl)-5-(3-(2-fluorophenyl)imidazo[1,5-a]pyridin-8-yl)-2-methylnicotinamide]: 15.7 nM.
The same measure for `Cc1ncc(-c2ccnn3c(-c4cccc(F)c4F)nnc23)cc1C(=O)Nc1ccc(F)cc1` [Example 50, 5-(3-(2,3-difluorophenyl)-[1,2,4]triazolo[4,3-b]pyridazin-8-yl)-N-(4-fluorophenyl)-2-methylnicotinamide]: 1890 nM; for `Cc1ccc(-c2nccn3c(-c4cccc(F)c4F)ncc23)cc1C(=O)Nc1ccc(F)cc1` [Example 51, 5-(3-(2,3-difluorophenyl)imidazo[1,5-a]pyrazin-8-yl)-N-(4-fluorophenyl)-2-methylbenzamide]: 656 nM.
Molecule `Cc1ccc(-c2nccn3c(-c4ccccc4C)ncc23)cc1C(=O)Nc1ccc(F)cc1` [Example 52, N-(4-fluorophenyl)-2-methyl-5-(3-(o-tolyl)imidazo[1,5-a]pyrazin-8-yl)benzamide] showed an EC50 of 3110 nM.
The same measure for `Cc1cccc(-c2ncc3c(-c4ccc(C)c(C(=O)Nc5ccc(F)cc5)c4)nccn23)c1` [Example 53, N-(4-fluorophenyl)-2-methyl-5-(3-(m-tolyl)imidazo[1,5-a]pyrazin-8-yl)benzamide]: 2380 nM; for `Cc1ccc(-c2nccn3c(-c4ccccn4)ncc23)cc1C(=O)Nc1ccc(F)cc1` [Example 54, N-(4-fluorophenyl)-2-methyl-5-(3-(pyridin-2-yl)imidazo[1,5-a]pyrazin-8-yl)benzamide]: 2630 nM.
The same measure for `O=C(Nc1ccc(F)cc1)c1cc(-c2cccn3c(-c4cccc(F)c4F)ncc23)ccc1OC(F)(F)F` [Example 55]: 15 nM.
The molecule `Cc1cnc(-c2cccn3c(-c4cccc(F)c4F)ncc23)cc1C(=O)Nc1ccc(F)cc1` [Example 56, 2-(3-(2,3-difluorophenyl)imidazo[1,5-a]pyridin-8-yl)-N-(4-fluorophenyl)-5-methylisonicotinamide] displayed an EC50 of 85.7 nM.
`Cc1ccc(-c2cccn3c(-c4cccc(F)c4F)ncc23)nc1C(=O)Nc1ccc(F)cc1` [Example 57] yielded a concentration giving a half-maximal response (EC50) of 76.8 nM.
The same measure for `Cc1ncc(-c2cccn3c(-c4cccc(F)c4F)ncc23)cc1C(=O)Nc1ccc(OC(F)(F)F)cc1` [Example 58, 5-(3-(2,3-difluorophenyl)imidazo[1,5-a]pyridin-8-yl)-2-methyl-N-(4-(trifluoromethoxy)phenyl)nicotinamide]: 110 nM; for `Cc1ncc(-c2cccn3c(-c4cccc(F)c4F)ncc23)cc1C(=O)Nc1ccc(C#N)c(C(F)(F)F)c1` [Example 59, N-(4-cyano-3-(trifluoromethyl)phenyI)-5-(3-(2,3-difluorophenyl)imidazo[1,5-a]pyridin-8-yl)-2-methylnicotinamide]: 227 nM; for `Cc1ncc(-c2cccn3c(-c4cccc(F)c4F)ncc23)cc1C(=O)Nc1ccc(F)cn1` [Example 60, 5-(3-(2,3-difluorophenyl)imidazo[1,5-a]pyridin-8-yl)-N-(5-fluoropyridin-2-yl)-2-methylnicotinamide]: 21.1 nM.
Regarding `Cc1ncc(-c2cccn3c(-c4cccc(F)c4F)cnc23)cc1C(=O)Nc1ccc(Cl)cc1` [Example 61, N-(4-chlorophenyl)-5-(3-(2,3-difluorophenyl)imidazo[1,2-a]pyridin-8-yl)-2-methylnicotinamide], the EC50 was determined as 29.9 nM.
